Measured values from US5474928A, “Arginine deiminase from a Mycoplasma arginini strain” (Nippon Mining Company, Limited, priority 1989, dated 1995).

Key:
[1] = target: T1, Mycoplasma arginini (IFO 14476) arginine deiminase (EC 3.5.3.6), present invention, amino acid sequence of FIG. 4 (Mycoplasmopsis arginini, UniProt P23793); assay: Km determination by Lineweaver-Burk plot analysis, citrulline formation assay; type: biochemical; settings: purified enzyme from M. arginini, substrate L-arginine
T1 construct: Arginine deiminase was purified from the M. arginini cell extract; endogenous in cells; host or cells: Mycoplasma arginini IFO 14476 cells (strain from the Institute for Fermentation, Osaka); enzyme purified in house by three chromatography steps
T1 sequence (P23793 whole entry): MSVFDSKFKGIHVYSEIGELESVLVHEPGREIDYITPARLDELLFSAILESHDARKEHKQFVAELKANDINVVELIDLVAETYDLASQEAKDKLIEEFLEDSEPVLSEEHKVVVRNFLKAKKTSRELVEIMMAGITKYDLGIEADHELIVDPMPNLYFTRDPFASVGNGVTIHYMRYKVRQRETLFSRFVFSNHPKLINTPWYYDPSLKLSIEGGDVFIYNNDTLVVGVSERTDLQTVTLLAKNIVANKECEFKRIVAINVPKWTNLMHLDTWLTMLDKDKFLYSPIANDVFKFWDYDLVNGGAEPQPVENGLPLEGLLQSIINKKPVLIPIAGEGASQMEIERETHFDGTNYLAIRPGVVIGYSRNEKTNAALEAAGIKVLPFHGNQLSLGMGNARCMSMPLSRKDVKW
Method: The activity of arginine deiminase can be determined by causing it to produce citrulline using the method reported by Fenske et. al. [J. Bacteriol. 126, 501-510 (1976)], and by measuring the amount of the yields using the method given by Archibald [J. Biol. Chem. 156, 121-142 (1944)].
Specifically, 20 μl of arginine deiminase solution is added to 1.0 ml of 10 mM arginine [dissolved in 0.1M phosphate buffer of pH 7.0], then an enzyme reaction is allowed to take place at 37° C. for 10 minutes, and the reaction is terminated by adding 1 ml of mixed acid solution (H2 SO4 :H3 PO4 =1:3). Then, the resultant reactive solution is added with 25 μl of 3% aqueous diacetylmonooxim solution, heated at 100° C. for 20 minutes under a light-shielded condition, left to cool under a room temperature for 30 minutes, and then the amount of the citrulline yield is measured quantitatively by measuring the absorbence at 490 nm. The activity of arginine deiminase producing 1 μmol of citrulline in one minute is defined as 1 unit.
v) Km value and Vmax value
By the Lineweaver-Burk plot analysis Km and Vmax were determined as 0.2 mM and 50 U/mg, respectively.

[2] = test system: M. arthritidis arginine deiminase; settings: literature value, Table 1; substrate L-arginine; cited from earlier work
[3] = test system: M. hominis arginine deiminase; settings: literature value, Table 1; substrate L-arginine; cited from earlier work
[4] = test system: Strepto- faecalis arginine deiminase; settings: literature value, Table 1; substrate L-arginine; cited from earlier work

In the case of `N=C(N)NCCC[C@H](N)C(=O)O` [L-arginine], the Km [1] is given as about 200 µM, the Km [2] is given as 4 µM and the Km [3] is given as 100 to 400 µM. The Km [4] was 150 µM.
